{"source": "patent US9750249B2", "about": "“Synergistic paraffinic oil and boscalid fungicides” (priority 2010, dated 2017)", "system": "dollar spot", "test": "Field trial: dollar spot counts on putting-green plots", "type": "in vivo, Sclerotinia homoeocarpa", "settings": "Table 2a; combination even with half the recommended application rate of boscalid", "source_text": "Studies were established in a completely randomized design with three replications. The treatments included an untreated (fertilizer only) treatment and twenty-three rate/interval combinations of Civitas™ and Emerald™. The label-recommended rates of Civitas™ application to control dollar spot on turfgrass are 8-32 oz/1000 sq.ft. The label-recommended rate of Emerald™ application to control dollar spot on turfgrass is 0.13 oz/1000 sq.ft.\nInitial treatments were made on June 16 and continued for 15 weeks (final treatments were made on September 27). […]\nPrecipitation was such that supplemental irrigation was not required on a regular basis. […] Treatment differences at individual measurement events were evaluated using analysis of variance and Fisher's protected least significant difference (LSD). […]\nApplying the approach to identifying synergy as set out in S. R. Colby, “Calculating synergistic and antagonistic responses of herbicide combinations”, Weeds 15, 20-22 (1967), expected efficacy, E, may be expressed as: E=X+Y(100−X)/100, where X is the efficacy, expressed in % of the untreated control, of the first composition (boscalid), and Y is the efficacy, expressed in % of the untreated control, of the second composition (Civitas).", "data": [{"smiles": "O=C(Nc1ccccc1-c1ccc(Cl)cc1)c1cccnc1Cl", "note": "[boscalid, 2-chloro-N-(4′-chloro[1,1′-biphenyl]-2-yl)-nicotinamide]", "values": [{"measurement": "sustained elimination of dollar spot", "value": "neither boscalid alone nor CIVITAS alone are capable of sustained elimination of dollar spot"}]}]}
